According to paper PMC11094793, “Discovery of LLC0424 as a Potent and Selective in Vivo NSD2 PROTAC Degrader” (Journal of Medicinal Chemistry, 2024):

Tests used:
[1] = system: H3K36me2; assay: H3K36me2 level by immunoblotting; type: cell-based, human; conditions: 2 μM
Procedure: (§1) NSD2 is the primary methyltransferase that transfers dimethyl to H3K36 in ALL with NSD2 gain-of-function mutation. Therefore, the effects of LLC0424 on H3K36me2 was evaluated in SEM and RPMI-8402 cells. […] Meanwhile, LLC0424 treatment also led to downregulation of H3K36Me2 in RPMI-8402 cells within 24 h (Figure 6B). […] We also conducted a colony formation assay to evaluate the effect of LLC0424 on the stem cell-like property of the leukemia cells. […] As LLC0424 leads to strong degradation of both NSD2-L and NSD2-S, the phenotypic changes upon LLC0424 treatment result from complete inactivation of NSD2 activity, including adaptor-like function of NSD2-S and SET-domain dependent enzymatic function of NSD2-L. The specific contributions of NSD2 isoforms warrant future investigation. To characterize the genes affected by LLC0424 treatment, we performed global transcriptome analysis of SEM cells treated by DMSO, LLC0424, or LLC0424N. LLC0424 treatment led to significant changes in the transcriptome of SEM cells with over 326 differentially expressed genes. […]
After treatment, the cultured cells were collected and rinsed with phosphate-buffered saline (PBS) in room temperature. […] After sonication and centrifugation, the total amount of protein in the cell lysates was measured by Pierce Bovine Serum Albumin Standard Pre-Diluted Set (ThermoFisher Scientific). […]

[2] = system: SEM cells; assay: RNA-seq global transcriptome analysis; type: cell-based, human; conditions: 14 days of treatment, versus DMSO
Procedure: as §1, with “LLC0424N.” for “LLC0424N. LLC0424 treatment led to significant changes in the transcriptome of SEM cells with over 326 differentially expressed genes.”
Total RNA was isolated from cells using the miRNeasy Mini Kit (Qiagen). […] Paired-end libraries were sequenced with the Illumina HiSeq 2500 (2 × 100 nucleotide read length) with sequence coverage to 15–20 M paired reads. […] Then we performed the analysis in R. First, EdgeR (edgeR_3.39.6) was used to perform read counts normalization and filtering (counts >10) and then Limma-Voom (limma_3.53.10) was used to analyze differential expression.

SMILES: O=C1CCC(N2C(=O)c3ccc(N4CCC(NC(=O)c5ccc(NC(=O)c6ccc(CN(C(=O)c7ccc8c(c7)OCC(=O)N8)C7CC7)cc6)cc5)CC4)cc3C2=O)C(=O)N1 (stereo not drawn) [compound 10l, N-Cyclopropyl-N-(4-((4-((1-(2-(2,6-dioxopiperidin-3-yl)-1,3-dioxoisoindolin-5-yl)piperidin-4-yl)carbamoyl)phenyl)carbamoyl)benzyl)-3-oxo-3,4-dihydro-2H-benzo[b][1,4]oxazine-7-carboxamide]
- H3K36Me2 level ([1]; RPMI-8402 cells, within 24 h): downregulation
- H3K36Me2 level ([1]; SEM cells, as long as 8 days): persistent downregulation
- differentially expressed genes (transcriptome) [2]: over 326
